# According to patent US4699914A, “Imidazole group containing 2(1H)-pyridones and method for treating heart insufficiencies in humans” (A. Nattermann & Cie GmbH, priority 1984, dated 1987):
# Key:
# [1] = test system: Anaesthetized dog; assay: Evaluation of the cardiotonic activity in vivo, anaesthetized dog; design: species or system dog (adult mongrel dogs of either sex); Blood Pressure: unit not given here; details: intravenous
# Description: The effects of increasing doses of the drugs were measured upon intravenous administration to anaesthetized dogs. As parameters myocardial contractility, heart rate and arterial blood pressure were registered.
# Adult mongrel dogs of either sex received a premedication of morphinhydrochloride (1.0 mg/kg s.c.). Thirty minutes later anaesthesia was induced by chloralose/urethane. The animals were heparinised with 500 I.U. heparin/kg (i.v.) as an initial dosage followed by doses of 250 I.U./kg given every 4 hours.
# The trachea was intubated but the animals were allowed to breathe spontaneously. The test solutions were injected via a cannula in the vena cephalica antebrachii dextra. Arterial blood pressure was measured by a cannula in the femoral artery. In order to enable the registration of the myocardial contractility a Millar catheter tip pressure transducer was inserted into the left ventricle by way of the left carotid artery. Arterial blood pressure and left ventricular blood pressure were recorded continuously. Heart rate is triggered from the peak of the blood pressure signal.
# From the left ventricular blood pressure the first derivative was calculated by a differentiator amplifier to give left ventricular dp/dt which was recorded as well. The compounds were solved in tetrahydrofurfurylalcohol polyethylene glycolether when necessary with additional heating.
# Each dose of the test compounds was administered in a volume of 0.1 ml/kg, the duration of the injection was 1 minute.
# The results with the tested compound representing the subject of invention 3,6-Dimethyl-5-[4-(1-imidazolyl)-2-thienyl]-2(1H)-pyridone-hydrochloride=Ain comparison with reference substance 4,5-Dihydro-6-[4-(1-imidazolyl)-phenyl]-3(2H)-pyridazinone ((CI 914, Drugs of the Future 9 (1984), 256)=B are given in the table 1.
# [2] = test system: human platelets; assay: Inhibition of the collagen-induced platelets aggregation in vitro (method of Born); format: cell-based; details: read-out: IC50 (concentration which causes an aggregation inhibition of 50%), platelet rich human plasma
# Description: The inhibition of the collagen-induced platelets aggregation in vitro was carried out by using the method of Born (Nature, 194, 927-929 (1962)) in using a platelet rich human plasma with the substances of the present invention 3,6-dimethyl-5-[-5-(1-imidazolyl)-2-thienyl]-2(1H)-pyridone-hydrochloride=C, 3,6-dimethyl-5-[4-(1-imidazolyl)phenyl]-2(1H)-pyridone-hydrochloride=D, 5-[4-(1-imidazolyl)-2-thienyl]-6-methyl-2(1H)-pyridone-hydrochloride=E in comparison with the reference substance acetylsalicyclic acid=F.
# [3] = Water solubility; format: physicochemical; details: hydrochloride, in words
SMILES,Blood Pressure ([1]; 0.01 mg/kg),Contractility ([1]; 0.01 mg/kg),Heart Rate ([1]; 0.01 mg/kg),Blood Pressure ([1]; 0.0316 mg/kg),Contractility ([1]; 0.0316 mg/kg),Heart Rate ([1]; 0.0316 mg/kg),Blood Pressure ([1]; 0.1 mg/kg),Contractility ([1]; 0.1 mg/kg),Heart Rate ([1]; 0.1 mg/kg),IC50 [2] [nM],other results
"Cc1[nH]c(=O)c(C)cc1-c1cc(-n2ccnc2)cs1.Cl [A, 3,6-Dimethyl-5-[4-(1-imidazolyl)-2-thienyl]-2(1H)-pyridone-hydrochloride]",-0.2,+32.4,+5.9,-4.1,+83.3,+20.0,-17.4,+185.5,+32.1,–,–
"O=C1CCC(c2ccc(-n3ccnc3)cc2)=NN1 [B, 4,5-Dihydro-6-[4-(1-imidazolyl)-phenyl]-3(2H)-pyridazinone, reference compound]",-1.3,+8.7,+3.6,-0.7,+25.5,+18.9,-10.4,+64.8,+15.4,–,–
Cc1[nH]c(=O)c(C)cc1-c1ccc(-n2ccnc2)s1 [C],–,–,–,–,–,–,–,–,–,440,–
Cc1[nH]c(=O)c(C)cc1-c1ccc(-n2ccnc2)cc1 [D],–,–,–,–,–,–,–,–,–,370,–
Cc1[nH]c(=O)ccc1-c1cc(-n2ccnc2)cs1 [E],–,–,–,–,–,–,–,–,–,540,–
"CC1=C(c2ccc(-n3ccnc3)cc2)CCC(=O)N1.Cl [Example 22, 3,4-dihydro-5-[4-(1-imidazolyl)-phenyl]-6-methyl-2(1H)-pyridone-hydrochloride]",–,–,–,–,–,–,–,–,–,–,water solubility [3]: water soluble
